Test results from patent US8604217B2, “Compound, a process for its preparation, a pharmaceutical composition, use of a compound, a method for modulating or regulating serine/threonine kinases and a serine/threonine kinases modulating agent” (Selvita S.A., priority 2009, dated 2013).

Key:
Experiment in all cases: KinaseProfiler kinase panel
Format in all cases: biochemical
[1] = target: IR(h), activated (Homo sapiens (Human), UniProt P06213)
[2] = target: DCAMKL2(h) (Homo sapiens (Human), UniProt Q8N568)
DCAMKL2(h), sequence (Q8N568 whole entry, looked up): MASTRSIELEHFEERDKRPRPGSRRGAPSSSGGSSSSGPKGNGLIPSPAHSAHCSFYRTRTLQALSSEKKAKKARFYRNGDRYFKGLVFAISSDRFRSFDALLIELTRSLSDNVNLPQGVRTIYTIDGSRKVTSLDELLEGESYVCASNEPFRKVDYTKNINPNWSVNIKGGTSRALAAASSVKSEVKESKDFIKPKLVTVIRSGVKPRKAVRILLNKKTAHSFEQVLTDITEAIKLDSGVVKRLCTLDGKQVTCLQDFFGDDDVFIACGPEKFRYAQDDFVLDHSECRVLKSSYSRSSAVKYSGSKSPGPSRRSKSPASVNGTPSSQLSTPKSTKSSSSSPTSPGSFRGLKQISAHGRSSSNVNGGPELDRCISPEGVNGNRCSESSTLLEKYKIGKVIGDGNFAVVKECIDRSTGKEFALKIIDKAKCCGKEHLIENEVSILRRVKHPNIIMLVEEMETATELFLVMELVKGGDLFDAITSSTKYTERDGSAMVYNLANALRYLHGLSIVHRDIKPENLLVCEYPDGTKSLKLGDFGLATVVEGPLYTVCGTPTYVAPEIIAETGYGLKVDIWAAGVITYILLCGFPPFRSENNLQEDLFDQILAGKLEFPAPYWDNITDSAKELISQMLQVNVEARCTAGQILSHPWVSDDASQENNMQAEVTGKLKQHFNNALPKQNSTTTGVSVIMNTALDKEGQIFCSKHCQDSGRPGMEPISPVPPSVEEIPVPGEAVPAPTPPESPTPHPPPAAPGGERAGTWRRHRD

[3] = target: Tie2(Y897S)(h) (Homo sapiens (Human), UniProt Q02763, Y897S)
[4] = target: Hck(h) (Homo sapiens (Human), UniProt P08631)
Hck(h), sequence (P08631 whole entry): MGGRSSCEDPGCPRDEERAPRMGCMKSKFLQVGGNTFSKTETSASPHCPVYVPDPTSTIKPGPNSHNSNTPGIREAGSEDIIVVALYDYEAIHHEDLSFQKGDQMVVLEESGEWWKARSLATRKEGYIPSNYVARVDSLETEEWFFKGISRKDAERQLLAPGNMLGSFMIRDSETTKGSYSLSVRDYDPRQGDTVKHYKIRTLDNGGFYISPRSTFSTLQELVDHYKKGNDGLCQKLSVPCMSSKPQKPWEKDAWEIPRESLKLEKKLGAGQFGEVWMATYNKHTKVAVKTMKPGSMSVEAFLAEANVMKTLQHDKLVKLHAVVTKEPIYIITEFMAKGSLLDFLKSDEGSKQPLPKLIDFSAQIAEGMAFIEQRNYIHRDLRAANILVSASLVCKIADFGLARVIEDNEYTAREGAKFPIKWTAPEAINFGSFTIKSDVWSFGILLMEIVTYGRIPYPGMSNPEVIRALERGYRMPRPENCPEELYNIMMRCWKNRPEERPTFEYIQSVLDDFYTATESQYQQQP

[5] = target: p70S6K(h) (Homo sapiens (Human), UniProt P23443)
p70S6K(h), sequence (P23443 whole entry): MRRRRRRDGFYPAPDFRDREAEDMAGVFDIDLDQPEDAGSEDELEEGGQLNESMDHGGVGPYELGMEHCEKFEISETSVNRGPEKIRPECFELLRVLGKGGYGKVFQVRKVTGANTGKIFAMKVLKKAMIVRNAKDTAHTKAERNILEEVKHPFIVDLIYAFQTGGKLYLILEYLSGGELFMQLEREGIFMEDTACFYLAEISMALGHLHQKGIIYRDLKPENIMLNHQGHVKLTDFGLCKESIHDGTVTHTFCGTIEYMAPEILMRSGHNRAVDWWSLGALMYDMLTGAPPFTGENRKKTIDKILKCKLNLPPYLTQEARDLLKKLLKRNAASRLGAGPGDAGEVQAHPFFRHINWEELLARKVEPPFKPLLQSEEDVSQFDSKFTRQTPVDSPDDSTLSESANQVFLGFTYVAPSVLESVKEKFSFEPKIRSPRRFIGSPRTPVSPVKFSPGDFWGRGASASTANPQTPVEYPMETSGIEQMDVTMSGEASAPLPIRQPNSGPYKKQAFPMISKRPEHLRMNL

[6] = target: ALK(h) (Homo sapiens (Human), UniProt Q9UM73)
[7] = target: EphB4(h) (Homo sapiens (Human), UniProt P54760)
[8] = target: PKCι(h) (Homo sapiens (Human), UniProt P41743)
[9] = target: CaMKIV(h) (Homo sapiens (Human), UniProt Q16566)
[10] = target: EphA8(h) (Homo sapiens (Human), UniProt P29322)
[11] = target: TAO1(h) (Homo sapiens (Human), UniProt Q7L7X3)
TAO1(h), sequence (Q7L7X3 whole entry): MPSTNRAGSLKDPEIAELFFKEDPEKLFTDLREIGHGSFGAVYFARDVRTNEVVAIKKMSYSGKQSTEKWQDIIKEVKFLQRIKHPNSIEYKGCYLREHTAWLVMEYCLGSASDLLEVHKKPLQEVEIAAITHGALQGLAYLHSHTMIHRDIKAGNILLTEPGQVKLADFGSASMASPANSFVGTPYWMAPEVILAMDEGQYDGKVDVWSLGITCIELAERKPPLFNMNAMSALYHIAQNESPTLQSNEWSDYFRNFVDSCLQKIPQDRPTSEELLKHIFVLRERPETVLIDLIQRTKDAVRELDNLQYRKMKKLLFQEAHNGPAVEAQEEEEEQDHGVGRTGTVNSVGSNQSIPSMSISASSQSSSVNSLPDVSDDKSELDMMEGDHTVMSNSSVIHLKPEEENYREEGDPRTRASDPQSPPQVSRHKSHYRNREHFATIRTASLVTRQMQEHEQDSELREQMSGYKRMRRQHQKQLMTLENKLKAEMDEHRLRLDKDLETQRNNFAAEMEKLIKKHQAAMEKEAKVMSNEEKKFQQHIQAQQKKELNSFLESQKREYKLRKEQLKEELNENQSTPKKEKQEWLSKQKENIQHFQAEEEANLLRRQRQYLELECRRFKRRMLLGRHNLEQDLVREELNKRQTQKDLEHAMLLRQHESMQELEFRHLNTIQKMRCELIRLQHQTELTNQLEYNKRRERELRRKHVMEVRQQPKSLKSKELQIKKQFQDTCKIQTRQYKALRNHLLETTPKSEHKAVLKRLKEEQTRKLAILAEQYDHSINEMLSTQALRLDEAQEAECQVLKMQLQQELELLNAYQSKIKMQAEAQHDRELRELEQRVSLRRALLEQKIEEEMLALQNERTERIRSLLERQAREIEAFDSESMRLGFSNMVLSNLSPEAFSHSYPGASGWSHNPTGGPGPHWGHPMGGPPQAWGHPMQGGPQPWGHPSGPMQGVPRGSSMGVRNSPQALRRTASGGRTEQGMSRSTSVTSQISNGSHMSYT

[12] = target: DDR2(h) (Homo sapiens (Human), UniProt Q16832)
[13] = target: EphA3(h) (Homo sapiens (Human), UniProt P29320)
[14] = target: PDGFRβ(h) (Homo sapiens (Human), UniProt P09619)
[15] = target: TSSK1(h) (Homo sapiens (Human), UniProt Q9BXA7)
[16] = target: PDGFRα(D842V)(h) (Homo sapiens (Human), UniProt P16234, D842V)
[17] = target: Met(D1246H)(h) (Homo sapiens (Human), UniProt P08581, D1246H)
[18] = target: ULK2(h) (Homo sapiens (Human), UniProt Q8IYT8)
[19] = target: CaMKIδ(h) (Homo sapiens (Human), UniProt Q8IU85)
[20] = target: PIM-3(h) (Homo sapiens (Human), UniProt Q86V86)
[21] = target: ARK5(h) (Homo sapiens (Human), UniProt O60285)
ARK5(h), sequence (O60285 whole entry): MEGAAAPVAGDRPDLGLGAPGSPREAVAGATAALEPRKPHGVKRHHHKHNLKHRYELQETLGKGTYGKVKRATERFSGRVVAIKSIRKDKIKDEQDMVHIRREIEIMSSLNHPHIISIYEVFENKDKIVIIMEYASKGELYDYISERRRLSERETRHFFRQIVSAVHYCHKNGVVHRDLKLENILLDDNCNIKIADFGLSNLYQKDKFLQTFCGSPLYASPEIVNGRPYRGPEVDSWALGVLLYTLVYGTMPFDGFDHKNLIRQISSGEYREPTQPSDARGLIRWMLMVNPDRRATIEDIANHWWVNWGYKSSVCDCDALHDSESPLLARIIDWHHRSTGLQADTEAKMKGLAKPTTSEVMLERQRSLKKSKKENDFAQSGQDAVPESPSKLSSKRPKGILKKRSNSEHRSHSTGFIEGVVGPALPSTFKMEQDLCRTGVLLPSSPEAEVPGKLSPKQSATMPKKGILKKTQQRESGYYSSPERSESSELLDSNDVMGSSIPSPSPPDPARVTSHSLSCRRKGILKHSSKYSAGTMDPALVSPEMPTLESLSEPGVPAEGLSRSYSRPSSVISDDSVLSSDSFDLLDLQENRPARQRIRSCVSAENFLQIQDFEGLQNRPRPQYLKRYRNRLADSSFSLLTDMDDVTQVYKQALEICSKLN

[22] = target: Arg(h) (Homo sapiens (Human), UniProt P42684)
[23] = target: IR(h) (Homo sapiens (Human), UniProt P06213)
[24] = target: c-RAF(h) (Homo sapiens (Human), UniProt P04049, Y340D/Y341D)
[25] = target: cKit(h) (Homo sapiens (Human), UniProt P10721)
[26] = target: PRAK(h) (Homo sapiens (Human), UniProt Q8IW41)
[27] = target: PKCδ(h) (Homo sapiens (Human), UniProt Q05655)
[28] = target: PASK(h) (Homo sapiens (Human), UniProt Q96RG2)
[29] = target: JNK2α2(h) (Homo sapiens (Human), UniProt P45984)
[30] = target: CDK5/p35(h) (Homo sapiens (Human), UniProt Q00535)
[31] = target: PAK5(h) (Homo sapiens (Human), UniProt Q9P286)
[32] = target: Fyn(h) (Homo sapiens (Human), UniProt P06241)
[33] = target: cKit(V654A)(h) (Homo sapiens (Human), UniProt P10721, V654A)
[34] = target: cKit(D816V)(h) (Homo sapiens (Human), UniProt P10721, D816V)
[35] = target: Src(T341M)(h) (Homo sapiens (Human), UniProt P12931, T341M)
[36] = target: Ret(h) (Homo sapiens (Human), UniProt P07949)
Ret(h), sequence (P07949 29-1114): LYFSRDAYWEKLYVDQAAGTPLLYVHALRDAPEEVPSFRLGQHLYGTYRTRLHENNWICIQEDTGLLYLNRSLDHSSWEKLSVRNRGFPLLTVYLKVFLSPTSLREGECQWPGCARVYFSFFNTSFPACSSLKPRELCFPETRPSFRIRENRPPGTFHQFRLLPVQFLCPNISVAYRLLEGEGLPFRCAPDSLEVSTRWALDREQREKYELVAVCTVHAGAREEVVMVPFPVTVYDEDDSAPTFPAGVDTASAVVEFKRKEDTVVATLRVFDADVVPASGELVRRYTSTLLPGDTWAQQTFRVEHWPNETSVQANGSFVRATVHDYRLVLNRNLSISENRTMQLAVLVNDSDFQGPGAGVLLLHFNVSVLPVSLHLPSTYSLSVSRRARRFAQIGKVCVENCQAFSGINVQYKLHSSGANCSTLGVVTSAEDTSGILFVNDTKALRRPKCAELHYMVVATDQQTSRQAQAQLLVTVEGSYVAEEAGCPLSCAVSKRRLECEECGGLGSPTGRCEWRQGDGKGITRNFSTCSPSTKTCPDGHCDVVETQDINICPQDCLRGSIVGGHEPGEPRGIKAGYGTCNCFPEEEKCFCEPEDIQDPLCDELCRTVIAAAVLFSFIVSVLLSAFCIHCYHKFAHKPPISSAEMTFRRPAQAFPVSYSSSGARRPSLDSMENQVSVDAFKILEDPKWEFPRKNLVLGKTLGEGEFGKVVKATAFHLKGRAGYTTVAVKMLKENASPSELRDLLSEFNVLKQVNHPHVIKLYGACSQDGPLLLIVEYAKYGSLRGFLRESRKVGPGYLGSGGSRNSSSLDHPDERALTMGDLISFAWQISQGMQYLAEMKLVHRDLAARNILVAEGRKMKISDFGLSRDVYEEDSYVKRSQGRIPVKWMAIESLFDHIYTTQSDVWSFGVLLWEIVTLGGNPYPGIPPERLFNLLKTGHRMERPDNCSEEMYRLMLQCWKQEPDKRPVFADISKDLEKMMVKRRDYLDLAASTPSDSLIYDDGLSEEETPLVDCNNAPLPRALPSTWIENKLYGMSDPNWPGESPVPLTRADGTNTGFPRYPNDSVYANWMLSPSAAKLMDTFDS

[37] = target: Abl (Q252H) (h) (Homo sapiens (Human), UniProt P00519, Q252H)
[38] = target: JAK2(h) (Homo sapiens (Human), UniProt O60674)
[39] = target: VRK2(h) (Homo sapiens (Human), UniProt Q86Y07)
VRK2(h), sequence (Q86Y07 whole entry): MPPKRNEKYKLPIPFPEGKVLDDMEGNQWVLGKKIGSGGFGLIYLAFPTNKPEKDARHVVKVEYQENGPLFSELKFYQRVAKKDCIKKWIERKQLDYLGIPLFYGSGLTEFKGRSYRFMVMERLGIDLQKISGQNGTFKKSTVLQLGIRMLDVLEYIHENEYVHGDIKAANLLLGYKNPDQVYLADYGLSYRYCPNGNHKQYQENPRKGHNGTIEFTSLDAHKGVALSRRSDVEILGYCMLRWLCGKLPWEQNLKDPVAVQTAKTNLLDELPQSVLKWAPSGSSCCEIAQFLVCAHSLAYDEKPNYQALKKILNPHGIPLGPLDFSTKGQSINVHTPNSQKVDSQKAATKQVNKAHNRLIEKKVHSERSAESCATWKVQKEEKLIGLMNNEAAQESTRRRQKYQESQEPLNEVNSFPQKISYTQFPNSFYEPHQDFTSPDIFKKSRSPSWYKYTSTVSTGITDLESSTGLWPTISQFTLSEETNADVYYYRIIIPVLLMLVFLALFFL

remaining activity at 1 µM [1]: 93% | remaining activity at 1 µM [2]: 101% | remaining activity at 1 µM [3]: 91% | remaining activity at 1 µM [4]: 79% | remaining activity at 1 µM [5]: 56% | remaining activity at 1 µM [6]: 106% | remaining activity at 1 µM [7]: 100% | remaining activity at 1 µM [8]: 104% | remaining activity at 1 µM [9]: 85% | remaining activity at 1 µM [10]: 102% | remaining activity at 1 µM [11]: 6% | remaining activity at 1 µM [12]: 105% | remaining activity at 1 µM [13]: 94% | remaining activity at 1 µM [14]: 102% | remaining activity at 1 µM [15]: 96% | remaining activity at 1 µM [16]: 17% | remaining activity at 1 µM [17]: 72% | remaining activity at 1 µM [18]: 88% | remaining activity at 1 µM [19]: 94% | remaining activity at 1 µM [20]: 34% | remaining activity at 1 µM [21]: 93% | remaining activity at 1 µM [22]: 119% | remaining activity at 1 µM [23]: 104% | remaining activity at 1 µM [24]: 85% | remaining activity at 1 µM [25]: 121% | remaining activity at 1 µM [26]: 91% | remaining activity at 1 µM [27]: 89% | remaining activity at 1 µM [28]: 28% | remaining activity at 1 µM [29]: 100% | remaining activity at 1 µM [30]: 2% | remaining activity at 1 µM [31]: 93% | remaining activity at 1 µM [32]: 73% | remaining activity at 1 µM [33]: 36% | remaining activity at 1 µM [34]: 61% | remaining activity at 1 µM [35]: 40% | remaining activity at 1 µM [36]: 27% | remaining activity at 1 µM [37]: 98% | remaining activity at 1 µM [38]: 121% | remaining activity at 1 µM [39]: 103%
SMILES: CCn1c(N2CCNCC2)nc2c(Br)c(Br)c(Br)c(Br)c21 [Compound 416, 4,5,6,7-tetrabromo-1-ethyl-2-(piperazin-1-yl)-1H-benzo[d]imidazole]
